Tests used:
[1] = tested on: HepG2; assay: HepG2 toxicity (resazurin), effect normalised to DMSO (DMSO = 0); higher = more features changed / larger toxic effect; settings: incubation time: 70h incubation
[2] = tested on: HeLa; assay: HeLa toxicity: nuclei-count effect normalised to DMSO (DMSO = 0); higher = more features changed / larger toxic effect; settings: incubation time: 24h incubation
[3] = tested on: HeLa; assay: Cell Painting percent induction (share of features beyond 2 z-scores vs DMSO); higher = more features changed / larger toxic effect; extreme values may be limits of the assay; settings: incubation time: 24h incubation
[4] = tested on: human spermatozoa; assay: total motile sperm, percent change vs DMSO (non-capacitating); higher = more of the measured sperm population than DMSO, for viability, fewer PI-positive (dead) cells than DMSO
[5] = tested on: human spermatozoa; assay: viability fold change, 1 - (PI-positive fraction / DMSO median); higher = more of the measured sperm population than DMSO, for viability, fewer PI-positive (dead) cells than DMSO; settings: incubation time: 3h, non-capacitating
[6] = tested on: human spermatozoa; assay: progressively motile sperm, percent change vs DMSO (capacitating); higher = more of the measured sperm population than DMSO, for viability, fewer PI-positive (dead) cells than DMSO; settings: incubation time: 30min incubation
[7] = tested on: human spermatozoa; assay: hyperactivated motile sperm, percent change vs DMSO (capacitating); higher = more of the measured sperm population than DMSO, for viability, fewer PI-positive (dead) cells than DMSO; settings: incubation time: 30min incubation
[8] = tested on: human spermatozoa; assay: change in acrosome-reacted (PNA+) sperm vs DMSO, no agonist (capacitating); higher = more of the measured sperm population than DMSO, for viability, fewer PI-positive (dead) cells than DMSO; settings: incubation time: 3h
[9] = tested on: human spermatozoa; assay: acrosome-reacted (PNA+) sperm after agonist cocktail, percent change vs DMSO (capacitating); higher = more of the measured sperm population than DMSO, for viability, fewer PI-positive (dead) cells than DMSO; settings: incubation time: 3h, capacitating + agonist cocktail 1h
[10] = tested on: human spermatozoa; assay: progressively motile sperm, percent change vs DMSO (non-capacitating); higher = more of the measured sperm population than DMSO, for viability, fewer PI-positive (dead) cells than DMSO; extreme values may be limits of the assay
[11] = incubation time: 10min incubation, 9.99 µM
[12] = incubation time: 10min incubation, 29.9 µM
[13] = incubation time: 3h incubation, 9.99 µM
[14] = incubation time: 3h incubation, 29.9 µM
[15] = incubation time: 6h incubation, 9.99 µM
[16] = incubation time: 6h incubation, 29.9 µM
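Wherever progressively motile sperm, percent change vs DMSO (non-capacitating) is given: pooled live human sperm from at least 3 donors, tracked by automated microscopy in 0.5 s time-lapse movies, compounds at 10 and 30 µM, versus median of 16 DMSO wells per plate.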
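Wherever total motile sperm, percent change vs DMSO (non-capacitating) is given: sperm pooled from at least 3 donors, tracked in 0.5 s time-lapse movies by automated microscopy after 10 min, 3 h or 6 h with compound at 10 or 30 µM.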

In the case of `N=C(N)Nc1ccc(C(=O)Oc2ccc3cc(C(=N)N)ccc3c2)cc1` [Nafamostat], the HepG2 toxicity ([1]; 10 µM) was -7.68%, the HepG2 toxicity ([1]; 30 µM) was 4.06% and the “HeLa toxicity: nuclei-count effect normalised” value ([2]; 9.99 µM) was 2.4%. For the same compound, the “HeLa toxicity: nuclei-count effect normalised” value ([2]; 29.9 µM) was 1.27%, the “Cell Painting percent induction” value ([3]; 9.99 µM) was 0% and the “Cell Painting percent induction” value ([3]; 29.9 µM) was 0%. It also gave a total motile sperm [4, 11] of -0.692%, a total motile sperm [4, 12] of 2.17% and a total motile sperm [4, 13] of -4.33%. For the same compound, the total motile sperm [4, 14] was -1.82%, the total motile sperm [4, 15] was -5.56% and the total motile sperm [4, 16] was -0.0709%. For the same compound, the viability fold change ([5]; 9.99 µM) was -0.884, the viability fold change ([5]; 29.9 µM) was -0.901 and the progressively motile sperm ([6]; 9.99 µM) was 3.69%. The progressively motile sperm ([6]; 29.9 µM) was 9.5%, the hyperactivated motile sperm ([7]; 9.99 µM) was 5.36% and the hyperactivated motile sperm ([7]; 29.9 µM) was 1.98%. It also gave a change in acrosome-reacted ([8]; 9.99 µM) of 0.86%, a change in acrosome-reacted ([8]; 29.9 µM) of 1.56% and an acrosome-reacted ([9]; 9.99 µM) of 5.51%. The acrosome-reacted ([9]; 29.9 µM) was 15.9%, the progressively motile sperm [10, 11] was -2.19% and the progressively motile sperm [10, 12] was 0.269%. For the same compound, the progressively motile sperm [10, 13] was -19.4%, the progressively motile sperm [10, 14] was -27.7% and the progressively motile sperm [10, 15] was -23.3%. For the same compound, the progressively motile sperm [10, 16] was -29.6%.

In the case of `O=C(Nc1ccc([N+](=O)[O-])cc1Cl)c1cc(Cl)ccc1O` [Niclosamide], the HepG2 toxicity ([1]; 10 µM) was -3.07%, the HepG2 toxicity ([1]; 30 µM) was 1.35% and the “HeLa toxicity: nuclei-count effect normalised” value ([2]; 9.99 µM) was 31.1%. For the same compound, the “HeLa toxicity: nuclei-count effect normalised” value ([2]; 29.9 µM) was 32.3%, the “Cell Painting percent induction” value ([3]; 9.99 µM) was 8.47% and the “Cell Painting percent induction” value ([3]; 29.9 µM) was 7.82%. The total motile sperm [4, 11] was -2.96%, the total motile sperm [4, 12] was -1.25% and the total motile sperm [4, 13] was -8.32%. It also gave a total motile sperm [4, 14] of -3.27%, a total motile sperm [4, 15] of -6.27% and a total motile sperm [4, 16] of -2.49%. The viability fold change ([5]; 9.99 µM) was 0.501, the viability fold change ([5]; 29.9 µM) was 0.431 and the progressively motile sperm ([6]; 9.99 µM) was -1.8%. It also gave a progressively motile sperm ([6]; 29.9 µM) of -5.95%, a hyperactivated motile sperm ([7]; 9.99 µM) of -59.6% and a hyperactivated motile sperm ([7]; 29.9 µM) of -70.1%. The change in acrosome-reacted ([8]; 9.99 µM) was 1.03%, the change in acrosome-reacted ([8]; 29.9 µM) was 1.07% and the acrosome-reacted ([9]; 9.99 µM) was 7.25%. The acrosome-reacted ([9]; 29.9 µM) was 4.65%, the progressively motile sperm [10, 11] was -28.1% and the progressively motile sperm [10, 12] was -27.6%. The progressively motile sperm [10, 13] was -26.2%, the progressively motile sperm [10, 14] was -30.1% and the progressively motile sperm [10, 15] was -18.2%. It also gave a progressively motile sperm [10, 16] of -26.8%.

In the case of `O=C(O)c1cccnc1Nc1cccc(C(F)(F)F)c1` [Niflumic acid], the HepG2 toxicity ([1]; 10 µM) was 4.41%, the HepG2 toxicity ([1]; 30 µM) was -6.15% and the “HeLa toxicity: nuclei-count effect normalised” value ([2]; 9.99 µM) was 2.94%. The “HeLa toxicity: nuclei-count effect normalised” value ([2]; 29.9 µM) was -2.27%, the “Cell Painting percent induction” value ([3]; 9.99 µM) was 0% and the “Cell Painting percent induction” value ([3]; 29.9 µM) was 0%. For the same compound, the total motile sperm [4, 11] was 2.12%, the total motile sperm [4, 12] was 1.32% and the total motile sperm [4, 13] was -5.94%. It also gave a total motile sperm [4, 14] of -1.61%, a total motile sperm [4, 15] of -3.08% and a total motile sperm [4, 16] of -6.87%. It also gave a viability fold change ([5]; 9.99 µM) of -1.06, a viability fold change ([5]; 29.9 µM) of -0.652 and a progressively motile sperm ([6]; 9.99 µM) of 5.54%. The progressively motile sperm ([6]; 29.9 µM) was 7.87%, the hyperactivated motile sperm ([7]; 9.99 µM) was 19.3% and the hyperactivated motile sperm ([7]; 29.9 µM) was -6.47%. For the same compound, the change in acrosome-reacted ([8]; 9.99 µM) was 0.714%, the change in acrosome-reacted ([8]; 29.9 µM) was 0.944% and the acrosome-reacted ([9]; 9.99 µM) was 4.85%. For the same compound, the acrosome-reacted ([9]; 29.9 µM) was -0.457%, the progressively motile sperm [10, 11] was 9.44% and the progressively motile sperm [10, 12] was 5.93%. It also gave a progressively motile sperm [10, 13] of -5.45%, a progressively motile sperm [10, 14] of 4.68% and a progressively motile sperm [10, 15] of 7.86%. The progressively motile sperm [10, 16] was -5.16%.

`COC(=O)[C@]1(C)CC[C@]2(C)CC[C@]3(C)C4=CC=C5C(=CC(=O)C(O)=C5C)[C@]4(C)CC[C@@]3(C)[C@@H]2C1` [Pristimerin] was tested, and the HepG2 toxicity ([1]; 10 µM) was 103%, the HepG2 toxicity ([1]; 30 µM) was 103% and the “HeLa toxicity: nuclei-count effect normalised” value ([2]; 9.99 µM) was 98.7%. The “HeLa toxicity: nuclei-count effect normalised” value ([2]; 29.9 µM) was 98.7%, the “Cell Painting percent induction” value ([3]; 9.99 µM) was 46.9% and the “Cell Painting percent induction” value ([3]; 29.9 µM) was 38.9%. The total motile sperm [4, 11] was -50.2%, the total motile sperm [4, 12] was -83.1% and the total motile sperm [4, 13] was -90.8%. The total motile sperm [4, 14] was -88.7%, the total motile sperm [4, 15] was -92.1% and the total motile sperm [4, 16] was -85.4%. For the same compound, the viability fold change ([5]; 9.99 µM) was -0.933, the viability fold change ([5]; 29.9 µM) was -1.2 and the progressively motile sperm ([6]; 9.99 µM) was -74.5%. The progressively motile sperm ([6]; 29.9 µM) was -96.6%, the hyperactivated motile sperm ([7]; 9.99 µM) was -72.5% and the hyperactivated motile sperm ([7]; 29.9 µM) was -73.6%. For the same compound, the change in acrosome-reacted ([8]; 9.99 µM) was 3.63%, the change in acrosome-reacted ([8]; 29.9 µM) was 6.18% and the acrosome-reacted ([9]; 9.99 µM) was -52.1%. It also gave an acrosome-reacted ([9]; 29.9 µM) of -57.5%, a progressively motile sperm [10, 11] of -86.8% and a progressively motile sperm [10, 12] of -99.9%. For the same compound, the progressively motile sperm [10, 13] was -100%, the progressively motile sperm [10, 14] was -100% and the progressively motile sperm [10, 15] was -100%. It also gave a progressively motile sperm [10, 16] of -99.9%.

Source: the supplement of paper PMC10878532, “Sperm Toolbox—A selection of small molecules to study human spermatozoa” (PLOS ONE, 2024)
